In article PMC12138978, “Mu Opioid Receptor Positive Allosteric Modulator BMS-986122 Confers Agonist-Dependent G Protein Subtype Signaling Bias” (Biochemistry, 2025):
Where “and” joins values, the source holds several entries; their conditions need not be identical. Equal entries are not always repeated. Marks after values point to notes of the source that are not given here.

Legend:
[1] = biological target: T1, human MOR signaling through Gαi2 (Homo sapiens, UniProt P35372); assay type: cell-based
T1 construct: host or cells: HEK 293T, transient

[2] = biological target: T2, human MOR signaling through Gαi1 (Homo sapiens, UniProt P35372); assay type: cell-based
T2 construct: host or cells: HEK 293T, transient

[3] = tested on: human MOR signaling through different Gα subunits; test: nanoBRET assay, comparison or average across Gα subunits; assay type: cell-based; conditions: for Average maximal increase in potency (EC50) caused by BMS-986122: average over Gα subunits, 10 μM BMS-986122
[4] = biological target: T3, human MOR signaling through Gαz (Homo sapiens, UniProt P35372); assay type: cell-based
T3 construct: host or cells: HEK 293T, transient

[5] = biological target: T4, human MOR signaling through Gαi3 (Homo sapiens, UniProt P35372); assay type: cell-based
T4 construct: host or cells: HEK 293T, transient

[6] = biological target: T5, human MOR signaling through GαoA (Homo sapiens, UniProt P35372); assay type: cell-based
T5 construct: host or cells: HEK 293T, transient

human MOR = human MOR (Homo sapiens, UniProt P35372); test: [3H]naloxone competition binding, MOR-CHO cell membranes, low-affinity buffer; conditions: fold change of Ki, vehicle vs 10 μM BMS-986122
Experimental: Chinese hamster ovary cells stably expressing the human MOR (MOR-CHO; obtained from Dr. George Uhl, NIDA Intramural Research Program, Baltimore, MD) were cultured in 10 cm dishes in Dulbecco’s modified Eagle’s medium (DMEM) supplemented with 5% fetal bovine serum and 100 U/mL penicillin–streptomycin at 37 °C in a 10% CO2 atmosphere. Cell membranes were isolated and homogenized as previously described, and membrane protein concentrations were determined with bovine serum albumin as the control as previously described. Membranes were stored at −80 °C until use.
[^3H]­Naloxone was used at a final concentration of 1.0 nM, and nonspecific binding was measured using 10 μM unlabeled naloxone. Membranes were added last to the incubation tube. All assays were performed at 25 °C and terminated by rapid vacuum filtration through Whatman #32 glass fiber filters using a Brandel cell harvester (Biomedical Research and Development Laboratories Inc., Gaithersburg, MD) followed by three ice-cold washes with 50 mM Tris-HCl, pH 7.4. Samples were collected and counted in 2 mL of Ecoscint A scintillation fluid (National Diagnostics, Atlanta, GA) for 2 min each using a LS 6500 scintillation counter (Beckman Coulter Inc., Fullerton, CA).
For competition binding experiments, the specific binding of the radioligand in the absence of other competing compounds was set at 100%. The percent of control binding was calculated for increasing concentrations of the competing compounds. A three- or four-parameter logistic curve was fit to the data by using SigmaPlot 11 (Systat Software Inc., San Jose, CA). […] Ki values were calculated as described previously. Statistical differences between Ki values were calculated using a two-tailed Student’s t test. Receptor binding data were reported as the mean Ki value ± SEM from three separate experiments performed in triplicate.

[7] = biological target: T6, human MOR signaling through GαoB (Homo sapiens, UniProt P35372); assay type: cell-based
T6 construct: host or cells: HEK 293T, transient

[8] = biological target: T7, human MOR signaling through Gαz with RGS20 (Homo sapiens, UniProt P35372); test: nanoBRET assay, MOR signaling through Gαz with RGS20 (RGSz1) coexpression; assay type: cell-based; conditions: RGS20 coexpressed
T7 construct: host or cells: HEK 293T, transient

[9] = biological target: T8, human MOR signaling through GαoA, GαoB and Gαi3 (Homo sapiens, UniProt P35372); test: TruPATH BRET2 assay in HEK 293T cells compared with nanoBRET; assay type: cell-based; conditions: GαoB and Gαi3, 10 μM BMS-986122, Student's t test
T8 construct: host or cells: HEK 293T, transient

[10] = biological target: T9, MOR signaling through GαoB-i3ct (Homo sapiens, UniProt P35372); test: nanoBRET assay, MOR signaling through GαoB-i3ct chimera (data not shown); assay type: cell-based
T9 construct: expressed in transfected cells; host or cells: HEK 293T (inferred: same nanoBRET system)

[11] = biological target: human mu opioid receptor (MOR) (human) (UniProt P35372); test: radioligand binding; competition with 1.0 nM [3H]naloxone on MOR-CHO cell membranes (50 ug membrane protein), in the presence of 10 uM BMS-986122; 60 min, 25 C; 50 mM Tris-HCl pH 7.4, 100 mM NaCl, 5 mM MgCl2, 1 mM EDTA, 1 mM DTT, 50 uM GDP (low-affinity buffer)
[12] = biological target: human mu opioid receptor (MOR) (human) (UniProt P35372); test: radioligand binding; competition with 1.0 nM [3H]naloxone on MOR-CHO cell membranes (50 ug membrane protein), vehicle; 60 min, 25 C; 50 mM Tris-HCl pH 7.4, 100 mM NaCl, 5 mM MgCl2, 1 mM EDTA, 1 mM DTT, 50 uM GDP (low-affinity buffer)
[13] = biological target: human mu opioid receptor (MOR) (human) (UniProt P35372)

T4 sequence (P35372 whole entry): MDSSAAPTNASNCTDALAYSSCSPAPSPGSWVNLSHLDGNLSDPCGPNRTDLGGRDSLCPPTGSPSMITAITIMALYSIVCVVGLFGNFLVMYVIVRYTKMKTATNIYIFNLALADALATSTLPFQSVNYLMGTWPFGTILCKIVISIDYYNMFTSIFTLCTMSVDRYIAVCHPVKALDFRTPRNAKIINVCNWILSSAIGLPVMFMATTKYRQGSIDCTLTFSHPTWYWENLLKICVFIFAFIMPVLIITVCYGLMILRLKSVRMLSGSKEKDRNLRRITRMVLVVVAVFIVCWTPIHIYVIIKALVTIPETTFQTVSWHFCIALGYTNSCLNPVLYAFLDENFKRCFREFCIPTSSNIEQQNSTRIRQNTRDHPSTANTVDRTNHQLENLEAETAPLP
T4 sequence (P08754 2-354 partner limits assumed): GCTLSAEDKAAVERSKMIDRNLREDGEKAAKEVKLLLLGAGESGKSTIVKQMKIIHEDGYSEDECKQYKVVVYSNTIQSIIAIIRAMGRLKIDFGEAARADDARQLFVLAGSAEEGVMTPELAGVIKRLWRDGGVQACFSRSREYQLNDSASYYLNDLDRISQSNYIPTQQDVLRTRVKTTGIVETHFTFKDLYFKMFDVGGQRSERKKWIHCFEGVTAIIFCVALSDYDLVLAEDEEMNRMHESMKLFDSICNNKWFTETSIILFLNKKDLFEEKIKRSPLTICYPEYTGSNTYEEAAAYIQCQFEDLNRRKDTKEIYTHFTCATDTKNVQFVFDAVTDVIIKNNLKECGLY
T5 sequence (P35372 whole entry): as the sequence (P35372 whole entry) above
T5 sequence (P09471 2-354 partner limits assumed): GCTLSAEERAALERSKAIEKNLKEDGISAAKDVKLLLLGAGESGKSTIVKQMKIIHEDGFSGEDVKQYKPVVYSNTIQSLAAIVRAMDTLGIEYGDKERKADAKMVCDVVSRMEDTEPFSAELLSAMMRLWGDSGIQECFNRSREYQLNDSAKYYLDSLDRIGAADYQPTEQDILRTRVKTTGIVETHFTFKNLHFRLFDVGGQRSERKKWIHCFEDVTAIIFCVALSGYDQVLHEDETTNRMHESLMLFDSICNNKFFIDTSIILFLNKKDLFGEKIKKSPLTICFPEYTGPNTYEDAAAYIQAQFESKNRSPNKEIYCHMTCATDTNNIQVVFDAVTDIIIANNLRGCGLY
T3 sequence (P35372 whole entry): as the sequence (P35372 whole entry) above
T3 sequence (P19086 2-355 partner limits assumed): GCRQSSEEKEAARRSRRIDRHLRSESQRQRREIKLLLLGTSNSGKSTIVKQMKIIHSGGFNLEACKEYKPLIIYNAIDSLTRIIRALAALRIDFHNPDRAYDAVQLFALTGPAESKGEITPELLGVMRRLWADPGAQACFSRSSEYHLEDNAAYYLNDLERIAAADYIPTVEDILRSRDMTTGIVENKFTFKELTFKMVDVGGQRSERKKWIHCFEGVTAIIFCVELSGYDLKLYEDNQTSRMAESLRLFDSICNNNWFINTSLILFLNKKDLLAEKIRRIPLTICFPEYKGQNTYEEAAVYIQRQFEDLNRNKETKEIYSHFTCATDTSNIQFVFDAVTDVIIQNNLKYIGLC
T6 sequence (P35372 whole entry): as the sequence (P35372 whole entry) above
T6 sequence (P09471 2-354 isoform P09471-2 partner limits assumed): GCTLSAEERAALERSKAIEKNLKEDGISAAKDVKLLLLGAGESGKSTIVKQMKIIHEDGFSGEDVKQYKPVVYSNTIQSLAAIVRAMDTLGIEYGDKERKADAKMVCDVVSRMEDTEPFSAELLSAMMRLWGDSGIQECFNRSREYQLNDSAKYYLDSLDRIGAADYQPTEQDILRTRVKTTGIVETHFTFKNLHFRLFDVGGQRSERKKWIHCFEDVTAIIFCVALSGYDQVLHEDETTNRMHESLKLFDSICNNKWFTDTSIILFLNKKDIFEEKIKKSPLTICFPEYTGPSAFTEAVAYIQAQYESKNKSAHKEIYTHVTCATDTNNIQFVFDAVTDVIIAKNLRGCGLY
T1 sequence (P35372 whole entry): as the sequence (P35372 whole entry) above
T1 sequence (P04899 2-355 partner limits assumed): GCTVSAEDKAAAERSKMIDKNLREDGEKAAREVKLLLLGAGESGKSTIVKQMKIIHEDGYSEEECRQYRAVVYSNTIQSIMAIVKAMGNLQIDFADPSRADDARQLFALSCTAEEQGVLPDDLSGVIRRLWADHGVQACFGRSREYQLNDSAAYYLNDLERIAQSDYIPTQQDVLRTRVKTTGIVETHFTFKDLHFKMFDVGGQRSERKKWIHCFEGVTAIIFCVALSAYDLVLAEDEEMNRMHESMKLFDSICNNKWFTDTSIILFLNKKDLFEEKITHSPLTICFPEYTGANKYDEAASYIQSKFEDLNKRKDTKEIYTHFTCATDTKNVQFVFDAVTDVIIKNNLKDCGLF
Chain of human MOR (P35372 whole entry): as the sequence (P35372 whole entry) above
Chain of human mu opioid receptor (MOR) (human) (P35372 whole entry): as above
T2 sequence (P35372 whole entry): as above
T2 sequence (P63096 2-354 partner limits assumed): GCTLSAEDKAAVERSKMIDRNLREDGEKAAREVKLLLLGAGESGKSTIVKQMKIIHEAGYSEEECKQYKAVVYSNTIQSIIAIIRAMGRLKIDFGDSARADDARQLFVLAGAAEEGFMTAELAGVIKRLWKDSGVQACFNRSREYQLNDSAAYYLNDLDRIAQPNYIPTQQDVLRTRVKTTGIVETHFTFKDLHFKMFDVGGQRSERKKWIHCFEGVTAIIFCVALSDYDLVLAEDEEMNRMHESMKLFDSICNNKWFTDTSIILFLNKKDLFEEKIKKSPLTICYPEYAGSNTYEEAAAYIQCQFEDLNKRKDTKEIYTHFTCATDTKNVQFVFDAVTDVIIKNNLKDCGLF
T9 sequence (P35372 whole entry): as the sequence (P35372 whole entry) above
T7 sequence (P35372 whole entry): as above
T7 sequence (P19086 2-355 partner limits assumed): as the sequence (P19086 2-355 partner limits assumed) above
T8 sequence (P35372 whole entry): as the sequence (P35372 whole entry) above

With COc1cc(Br)ccc1C1SCCN1S(=O)(=O)c1ccc(Cl)cc1 (stereo not drawn) [BMS-986124] the “Antagonism of the effect of 3 μM BMS-986122 on the potency of DAMGO” value [1] was “antagonized the effect of 3 μM BMS-986122, but not completely” and the “Antagonism of the effect of 3 μM BMS-986187 on the potency of DAMGO” value [1] was “partially block the effect of 3 μM BMS-986187”.

In the case of C[C@@H](NC(=O)[C@@H](N)Cc1ccc(O)cc1)C(=O)NCC(=O)N(C)[C@@H](Cc1ccccc1)C(=O)NCCO [DAMGO, [D-Ala 2, N-MePhe 4, Gly-ol]-enkephalin], the ΔpEC50 [2] is reported as 0.596 ± 0.023, the “Average maximal increase in potency (EC50) caused by BMS-986122” value [3] is reported as 4.5 fold and the ΔpEC50 [4] is reported as 0.529 ± 0.087. It also gave a ΔpEC50 [1] of 0.712 ± 0.064, a ΔpEC50 [5] of 0.467 ± 0.104 and a ΔpEC50 [6] of 0.667 ± 0.022. The “Ki (Veh)/Ki (BMS)” value (human MOR) was 6.8 **** and the ΔpEC50 [7] was 0.791 ± 0.109.

In the case of Cc1ccccc1COc1ccc(C2C3=C(CC(C)(C)CC3=O)OC3=C2C(=O)CC(C)(C)C3)cc1 [BMS-986187], the “ΔΔlog(τ)oB-i3” value ([3]; 7-hydroxymitragnine as agonist, 10 μM PAM, relative transduction coefficients compared between Gαi3 and GαoB) is reported as 0.157.

For CC(C)=CCN1CCC2(C)c3cc(O)ccc3CC1C2C (single isomer, unassigned; (-)) [(−)-Pentazocine], the Emax [2] was 56 ± 1.4% and 105 ± 1.2%, the Emax [4] was 105 ± 1.8% and 110 ± 6.7% and the Emax [1] was 35 ± 2.0% and 66 ± 4.3%. The Emax [5] was 70 ± 1.8% and 102 ± 1.8%, the “Emax with RGS20 coexpression versus without” value [8] was “dramatically reduced” and the Emax [6] was 48 ± 2.2% and 88 ± 3.0%. For the same compound, the “Ki (Veh)/Ki (BMS)” value (human MOR) was 1.0 ns and the Emax [7] was 74 ± 0.33% and 96 ± 2.6%.

With CC[C@@H]1CN2CC[C@@]3(O)C(=Nc4cccc(OC)c43)[C@@H]2C[C@@H]1/C(=C\OC)C(=O)OC [7-Hydroxymitragynine] the Emax [4] was 33 ± 3.0% and 65 ± 4.1%, the “Δlog(τ) in TruPATH compared with nanoBRET” value [9] was “not statistically different” and the “Efficacy modulation by BMS-986122” value [10] was “reduced”. For the same compound, the Intrinsic efficacy [10] was “increased substantially” and the “Ki (Veh)/Ki (BMS)” value (human MOR) was 1.1 ns.

With “[D-Ala 2, N-MePhe 4, Gly-ol]-enkephalin (DAMGO) acetate (peptide)” the Ki [11] was 35 nM, the Ki [12] was 240 nM and the EC50, nanoBRET G protein activation in HEK 293T cells, MOR signaling through Gαi1, vehicle [13] was 58 nM. For the same compound, the EC50, nanoBRET G protein activation in HEK 293T cells, MOR signaling through Gαi2, vehicle [13] was 46 nM, the EC50, nanoBRET G protein activation in HEK 293T cells, MOR signaling through Gαi2, with 10 μM BMS-986122 [13] was 9.1 nM and the EC50, nanoBRET G protein activation in HEK 293T cells, MOR signaling through Gαi3, vehicle [13] was 24 nM. For the same compound, the EC50, nanoBRET G protein activation in HEK 293T cells, MOR signaling through Gαi3, with 10 μM BMS-986122 [13] was 7.3 nM, the EC50, nanoBRET G protein activation in HEK 293T cells, MOR signaling through GαoA, with 10 μM BMS-986122 [13] was 10 nM and the EC50, nanoBRET G protein activation in HEK 293T cells, MOR signaling through GαoB, vehicle [13] was 74 nM. It also gave an EC50, nanoBRET G protein activation in HEK 293T cells, MOR signaling through GαoB, with 10 μM BMS-986122 [13] of 11 nM, an EC50, nanoBRET G protein activation in HEK 293T cells, MOR signaling through Gαz, vehicle [13] of 10 nM and an EC50, nanoBRET G protein activation in HEK 293T cells, MOR signaling through Gαz, with 10 μM BMS-986122 [13] of 3.2 nM.

In the case of CSCC[C@H](NC(=O)[C@H](Cc1ccccc1)NC(=O)CNC(=O)CNC(=O)[C@@H](N)Cc1ccc(O)cc1)C(=O)O [Met-Enkephalin, methionine-enkephalin], the “Average maximal increase in potency (EC50) caused by BMS-986122” value [3] is reported as 3.8 fold.

Compound “methionine-enkephalin (met-enkephalin) acetate (peptide)” has a Ki [11] of 48 nM, an EC50, nanoBRET G protein activation in HEK 293T cells, MOR signaling through Gαi1, vehicle [13] of 52 nM and an EC50, nanoBRET G protein activation in HEK 293T cells, MOR signaling through Gαi1, with 10 μM BMS-986122 [13] of 10 nM. It also gave an EC50, nanoBRET G protein activation in HEK 293T cells, MOR signaling through Gαi3, with 10 μM BMS-986122 [13] of 8.7 nM, an EC50, nanoBRET G protein activation in HEK 293T cells, MOR signaling through GαoA, vehicle [13] of 53 nM and an EC50, nanoBRET G protein activation in HEK 293T cells, MOR signaling through GαoB, vehicle [13] of 53 nM. It also gave an EC50, nanoBRET G protein activation in HEK 293T cells, MOR signaling through GαoB, with 10 μM BMS-986122 [13] of 14 nM and an EC50, nanoBRET G protein activation in HEK 293T cells, MOR signaling through Gαz, with 10 μM BMS-986122 [13] of 17 nM.
